Consider 19 compounds from ChEMBL document CHEMBL3301361, “Experimental in vitro DMPK and physicochemical data on a set of publicly disclosed compounds”.

≈ marks a conversion by molar mass, not a printed value.

Data set [1] can be described thus: in vitro. To be noted: hepatocytes.
The nature of data set [2]: physchem. To be noted: octan-1-ol/water.
Data set [3] can be described thus: in vitro. The conditions noted are these: SD, HW or BN, rat, plasma.
A short description of data set [4]: in vitro. The conditions noted are these: human.
Data set [5] can be described thus: in vitro. The conditions noted are these: human, plasma, PPB.
Data set [6] in a line: physchem. To be noted: pH 7.4 buffer.

As usually defined, the hepatocyte CLint is the capacity of the preparation to metabolise the compound, expressed as a volume cleared per time. The term logD denotes lipophilicity at a set pH, counting ionised and neutral species. As usually defined, the fraction unbound is the share of the substance not bound to proteins or other matrix. The term microsomal CLint denotes the capacity of the preparation to metabolise the compound, expressed as a volume cleared per time. Broadly, the solubility (thermodynamic) is the concentration in solution at equilibrium with solid.

As for `N#C[C@]1(NC(=O)[C@@H](N)Cc2cccs2)C[C@H]1c1ccccc1`, the intrinsic clearance (hepatocyte CLint) in data set [1] stood at 136 µL/min/1e6 cells. The compound further gave a logD in data set [2] (pH 7.4, LogD7.4) of 1.5. Besides, in data set [3], the fraction unbound at 5 h was 0.294. For the same compound, the microsomal CLint in data set [4] (liver microsomes) stood at 41 µL/min/mg.

Turning to `CN(CCCOCCOCCc1ccccc1)CCc1ccc(O)c2nc(O)sc12`, the fraction unbound at 5 h in data set [5] is 0.0988; in data set [3] it was 0.24. The hepatocyte CLint in data set [1] was above 150 µL/min/1e6 cells. Besides, the microsomal CLint in data set [4] (liver microsomes) stood at 35 µL/min/mg.

`O=c1[nH]c2c(O)ccc([C@@H](O)CN[C@H]3CCC[C@@H]3OCc3ccccc3)c2s1`: the values for the fraction unbound at 5 h in data set [5] and in data set [3] were 0.069 and 0.179, respectively. The compound further returned a hepatocyte CLint in data set [1] of 108 µL/min/1e6 cells. Also, the microsomal CLint in data set [4] (microsomes) was determined as 26 µL/min/mg.

`O=C(c1ccccc1)N1CCC2(CCN(Cc3cccc(Cl)c3)CC2)CC1` returned a hepatocyte CLint in data set [1] below 3 µL/min/1e6 cells. Also, the fraction unbound at 5 h in data set [3] is 0.166. The compound further displayed an intrinsic clearance (microsomal CLint) in data set [4] (microsomes) of 5 µL/min/mg.

In the case of `Cc1cccc(CN2CCC3(CC2)CCN(C(=O)c2ccccc2)CC3)c1`, the hepatocyte CLint in data set [1] came to 10.2 µL/min/1e6 cells. In data set [3], the fraction unbound at 5 h is 0.46. Moreover, the intrinsic metabolic clearance (microsomal CLint) in data set [4] (liver microsomes) is 13.5 µL/min/mg.

Turning to `COc1ccccc1CN1C(=O)c2ccccc2C1C(=O)NC1CCC(C)CC1` (stereo not drawn), in data set [1], the hepatocyte CLint was above 150 µL/min/1e6 cells. Moreover, the logD in data set [2] (pH 7.4) was found to be 3.74. The same compound had a fraction unbound at 5 h in data set [3] of 0.0968. In data set [4] (liver microsomes), this compound showed a microsomal CLint above 150 µL/min/mg.

Turning to `COc1cc2nnc(C(N)=O)c(Nc3ccc(F)cc3F)c2cc1N1CCN(C)CC1`, the fraction unbound at 5 h is 0.0948 in data set [5] and 0.157 in data set [3]. For the same compound, the hepatocyte CLint in data set [1] came to 16 µL/min/1e6 cells. In data set [2] (pH 7.4, LogD7.4), this compound registered a logD of 2.36. In addition, in data set [4] (microsomes), the intrinsic metabolic clearance (microsomal CLint) turned out to be 33 µL/min/mg.

`COc1ccnc(CCc2nc3ncccc3[nH]2)c1`: the hepatocyte CLint in data set [1] came to 18.9 µL/min/1e6 cells. This compound registered a pH-dependent lipophilicity (logD) in data set [2] (pH 7.4, LogD7.4) of 1.69. Besides, the fraction unbound at 5 h in data set [3] was 0.309. In data set [4] (liver microsomes), the microsomal CLint is below 3 µL/min/mg.

`Cc1ccccc1/N=N/c1ccc(NC(=O)c2ccnn2C)c(C)c1` returned a solubility (thermodynamic) in data set [6] of 3.2 µM (≈ 1.07 µg/mL). Besides, in data set [1], the hepatocyte CLint came out at 51 µL/min/1e6 cells. The fraction unbound at 5 h in data set [3] is 0.0017. In data set [4] (microsomes), the microsomal CLint turned out to be 4 µL/min/mg.

In data set [1], `CSCCC(NC(=O)c1ccccc1)c1nc2ccccc2n1Cc1ccc(C#N)cc1` (stereo not drawn) displayed an intrinsic metabolic clearance (hepatocyte CLint) above 150 µL/min/1e6 cells. Besides, the logD in data set [2] (pH 7.4, LogD7.4) was 4.24. Besides, in data set [3], the fraction unbound at 5 h is 0.0245. Also, the microsomal CLint in data set [4] (liver microsomes) was above 150 µL/min/mg.

`Cc1ccc(C(=O)NC2CC2)cc1-c1ccc(C(=O)NCC2CC2)nc1` registered a hepatocyte CLint in data set [1] of 21 µL/min/1e6 cells. The logD in data set [2] (pH 7.4, LogD7.4) stood at 3.36. The fraction unbound at 5 h in data set [3] is 0.089. In data set [4] (microsomes), this compound came in with a microsomal CLint below 3 µL/min/mg.

Compound `COc1cccc2sc(NC(=O)c3ccccc3)nc12` came in with an intrinsic metabolic clearance (hepatocyte CLint) in data set [1] of 16 µL/min/1e6 cells. The compound also yielded a logD in data set [2] (pH 7.4) of 3.96. In data set [3], this compound showed a fraction unbound at 5 h of 0.0101. The compound also displayed a microsomal CLint in data set [4] (liver microsomes) of 74 µL/min/mg.

With `CCC(CC)NC(=O)c1cnn(-c2ccccc2)c1NS(=O)(=O)c1ccc(C)cc1`, the intrinsic clearance (hepatocyte CLint) in data set [1] is 47.9 µL/min/1e6 cells. The compound further registered a logD in data set [2] (pH 7.4, LogD7.4) of 0.79. This compound gave a free fraction (fraction unbound) at 5 h in data set [3] of 0.0234. Further, the microsomal CLint in data set [4] (liver microsomes) amounted to 54.5 µL/min/mg.

For `Cc1ccc(S(=O)(=O)Nc2c(C(=O)NCc3ccccc3)cnn2-c2ccccc2)cc1`, the hepatocyte CLint in data set [1] is 40 µL/min/1e6 cells. Besides, the logD in data set [2] (pH 7.4, LogD7.4) worked out at 1.9. This compound also showed a fraction unbound at 5 h in data set [3] of 0.0066. In data set [4] (liver microsomes), this compound had a microsomal CLint above 150 µL/min/mg.

As to `CCC(CC)NC(=O)c1cnn(-c2ccccn2)c1NS(=O)(=O)c1ccc(C)cc1`, the hepatocyte CLint in data set [1] was 9.95 µL/min/1e6 cells. The same compound displayed a logD in data set [2] (pH 7.4, LogD7.4) of 0.27. Besides, the free fraction (fraction unbound) at 5 h in data set [3] was 0.0499. In data set [4] (liver microsomes), this compound yielded a microsomal CLint below 3 µL/min/mg.

For `Cc1ccc(S(=O)(=O)Nc2c(C(=O)NC(C)C)c(C)nn2-c2ccccc2)cc1`, the hepatocyte CLint in data set [1] was determined as 51 µL/min/1e6 cells. Further, the fraction unbound at 5 h in data set [3] was 0.051. Also, the intrinsic metabolic clearance (microsomal CLint) in data set [4] (liver microsomes) stood at 12 µL/min/mg.

For the compound `Cc1ccc(S(=O)(=O)Nc2c(C(=O)NC3CCCCC3C)c(C)nn2-c2ccccc2)cc1` (stereo not drawn), the fraction unbound at 5 h in data set [5] is 0.0066; in data set [3] it was 0.0224. In data set [1], this compound had a hepatocyte CLint of 17 µL/min/1e6 cells. The logD in data set [2] (pH 7.4, LogD7.4) is 1.94. This compound also came in with a microsomal CLint in data set [4] (liver microsomes) of 58 µL/min/mg.

For `Cc1nn(-c2ccccc2)c(NS(=O)(=O)c2cccc(CN3CCOCC3)c2)c1C(=O)N[C@@H](C)C(C)(C)C`, the hepatocyte CLint in data set [1] was 10 µL/min/1e6 cells. The compound further had a fraction unbound at 5 h in data set [3] of 0.16. Moreover, the microsomal CLint in data set [4] (liver microsomes) was determined as 9 µL/min/mg.

The compound `CC(C(=O)OC1CC[N+](C)(C)CC1)(c1ccccc1)N1CCC(F)(F)CC1` (stereo not drawn) had a hepatocyte CLint in data set [1] of 38 µL/min/1e6 cells. The same compound gave a fraction unbound at 5 h in data set [3] of 0.624. This compound gave a microsomal CLint in data set [4] (microsomes) of 41 µL/min/mg.
